Results taken from patent publication US8785424B2, “ngCycloartanone derivatives with anticancer activity” (Pierre Fabre Medicament, priority 2009, dated 2014).
Counter-ions that a name gives are not always drawn.

System: proteasome
Assay: Cellular proteasome inhibition test: accumulation of 4Ub-Luc reporter (luciferase activity) in DLD-1 4Ub-Luc cell line
Type: cell-based, human
Conditions: DLD-1 4Ub-Luc cells, 8 hours, epoxomicin = 100%
Description: Biological tests were carried out according to protocols described in the following articles: Ausseil F. et al. J. Biomol Screen. 2007, 12, 106-116 and Vandenberghe I. et al. Biochemical Pharmacology 2008, 76, 453-462.
In order to select novel proteasome inhibitor compounds, it is necessary to indirectly measure the activity of this proteasome within cells. To this end, we constructed a stable cell line, DLD-1 4Ub-Luc, arising from a human colon cancer cell line, which produces a chimeric reporter protein called 4Ub-Luc. This protein is a fusion between a 4-ubiquitin (4Ub) label and luciferase (Luc). This label is capable to direct every proteins that carry it toward the proteasome. The 4Ub-Luc protein is thus efficiently degraded by the proteasome, in contrast to the “wild” non-fused Luc protein. When the DLD-1 4Ub-Luc cell line is treated with a proteasome inhibitor, the fusion protein is much less efficiently degraded and accumulates in the cell. This accumulation is detected by an increase in luciferase activity in the treated extract compared to the extract from untreated cells. The control consists of verifying that the inhibitor has no effect on accumulation of the wild Luc protein produced by the stable DLD-1 RF cell line. For both cell lines and for each product an induction factor is determined for the product tested (or the reference) corresponding to the ratio between the luciferase activities measured in cells treated with this product (or the reference) and cells treated with solvent alone.
The product's activity is then defined by its relative induction factor, i.e., the ratio of its induction factor (IF % luminescence) to that of the reference molecule epoxomicin (IF=100%; see data presented in the table below).
Thus, the test established by Pierre-Fabre is a cellular test that has the advantage, compared to a purely enzymatic test, of detecting only products capable of penetrating the cell.
Two cell lines are used for this test: DLD-1 RF and DLD-1 4Ub-Luc. The culture medium used is as follows: • MEM • 5% fetal calf serum • 5 ml of penicillin-streptomycin • 2.5 ml of FUNGIZONE® (Amphotericin B) • 10 ml of […]
Day 1: Inoculate white 96-well culture-treated plates (PerkinElmer White ViewPlate, product no. 6005181) with 100 μl of 1·10^5 c/ml cell suspension per well. Incubate for 24 hours so that the cells adhere. On each plate five columns will be inoculated with DLD-1 4Ub-Luc and five others with DLD-1 RF according to diagram 1 below.
Day 2: Remove the medium by turning the plates upside down on cotton, and then carry out the treatment with the compounds of the invention, with solvent alone or with a reference compound such as epoxomicin. […]
The columns are paired (examples 2 and 8, 3 and 9, 4 and 10 and 5 and 11) and treated with the same compound. Columns 6 and 7 receive the experimental control, namely 0.1% DMSO in culture medium for wells B, C, D, and E of columns 6 and 7, and the positive control (10^−7 M epoxomicin) in wells F and G.
After incubation, turn the plate upside down on cotton to empty the wells, rinse with 50 μl of PBS to remove any trace of the cytotoxin tested and then add 50 μl of 5× passive lysis buffer (Promega, product no. E1941) diluted to ⅕ in water. Shake energetically using a plate shaker for 5 to 10 minutes at room temperature before freezing at −20° C.
Luciferase activity is measured using a Luciferase Assay System 10-Pack kit (Promega, product no. E1501).
On the day luciferase activity is to be measured, defrost the plates and wait until they have returned to room temperature. The optimal temperature for luciferase activity is 20-25° C.
Reconstitute the firefly luciferase substrate by defrosting the buffer and then adding 10 ml of buffer to the bottle containing the freeze-dried substrate. Wait until the solution is at room temperature before beginning the assay. […]

[1] = concentration tested 5 · 10^−6 M
[2] = concentration tested 5 · 10^−7 M

Row | SMILES | relative induction factor (IF % luminescence) versus epoxomicin [1] | relative induction factor (IF % luminescence) versus epoxomicin [2] | relative induction factor (IF % luminescence) versus epoxomicin (concentration tested 10^−6 M) | relative induction factor (IF % luminescence) versus epoxomicin (concentration tested 10^−5 M) | relative induction factor (IF % luminescence) versus epoxomicin (concentration tested 5 · 10^−6 M, hydrochloride) | relative induction factor (IF % luminescence) versus epoxomicin (concentration tested 5 · 10^−7 M, hydrochloride) | relative induction factor (IF % luminescence) versus epoxomicin (concentration tested 10^−5 M, hydrochloride) | relative induction factor (IF % luminescence) versus epoxomicin (concentration tested 10^−6 M, hydrochloride)
1 | C=C(C(=O)[C@H](OC(C)=O)[C@@H](C)[C@H]1[C@@H](OC(C)=O)C[C@@]2(C)[C@@H]3CC[C@H]4[C@H](C)C(=O)C=C[C@@]45C[C@@]35CC[C@]12C)[C@@H](C)COC(=O)Nc1ccccc1 [Compound 20, 26-N-phenylcarbamate-neoboutomellerone] | 60% | 6% | 42% | – | – | – | – | –
2 | C=C(C(=O)[C@H](OC(C)=O)[C@@H](C)[C@H]1[C@@H](OC(C)=O)C[C@@]2(C)[C@@H]3CC[C@H]4[C@H](C)C(=O)C=C[C@@]45C[C@@]35CC[C@]12C)[C@@H](C)COC(=O)N1CCN(C)CC1 [Compound 22, 26-N—(N-methylpiperazine)carbamate-neoboutomellerone hydrochloride] | 4% | 8% | 68% | 1% | – | – | – | –
3 | C=C(C(=O)[C@H](O)[C@@H](C)[C@H]1[C@@H](OC(C)=O)C[C@@]2(C)[C@@H]3CC[C@H]4[C@H](C)C(=O)C=C[C@@]45C[C@@]35CC[C@]12C)[C@@H](C)COC(=O)N1CCN(C)CC1 [Compound 23, 26-N—(N-methylpiperazine)carbamate-22-deacetyl-neoboutomellerone] | 7% | 15% | 69% | 2% | – | – | – | –
4 | C=C(C(=O)[C@H](O)[C@@H](C)[C@H]1[C@@H](OC(C)=O)C[C@@]2(C)[C@@H]3CC[C@H]4[C@H](C)C(=O)C=C[C@@]45C[C@@]35CC[C@]12C)[C@@H](C)COC(=O)N1CCN(C)CC1 [Compound 24, 26-N—(N-methylpiperazine)carbamate-22-deacetyl-neoboutomellerone hydrochloride] | – | – | – | – | 5% | 12% | 1% | 70%
5 | C=C(C(=O)[C@H](OC(C)=O)[C@@H](C)[C@H]1[C@@H](OC(C)=O)C[C@@]2(C)[C@@H]3CC[C@H]4[C@H](C)C(=O)C=C[C@@]45C[C@@]35CC[C@]12C)[C@@H](C)COC(=O)Nc1ccc(N(C)C)cc1 [Compound 25, 26-N-(4-N,N-dimethylaniline)carbamate-neoboutomellerone] | 51% | 19% | 49% | 60% | – | – | – | –
6 | C=C(C(=O)[C@H](O)[C@@H](C)[C@H]1[C@@H](OC(C)=O)C[C@@]2(C)[C@@H]3CC[C@H]4[C@H](C)C(=O)C=C[C@@]45C[C@@]35CC[C@]12C)[C@@H](C)COC(=O)Nc1ccc(N(C)C)cc1 [Compound 26, 26-N-(4-N,N-dimethylaniline)carbamate-22-deacetyl-neoboutomellerone] | 54% | 11% | 53% | 37% | – | – | – | –
7 | C=C(C(=O)[C@H](OC(C)=O)[C@@H](C)[C@H]1[C@@H](OC(C)=O)C[C@@]2(C)[C@@H]3CC[C@H]4[C@H](C)/C(=N/O)C=C[C@@]45C[C@@]35CC[C@]12C)[C@@H](C)CO [Compound 27, 3-anti-oxime-neoboutomellerone] | 103% | 1% | 1% | – | – | – | – | –
8 | C=C(C(=O)[C@H](OC(C)=O)[C@@H](C)[C@H]1[C@@H](OC(C)=O)C[C@@]2(C)[C@@H]3CC[C@H]4[C@H](C)/C(=N/NC(N)=O)C=C[C@@]45C[C@@]35CC[C@]12C)[C@@H](C)CO [Compound 35, 3-semicarbazone-neoboutomellerone] | 99% | – | 1% | 30% | – | – | – | –
9 | C=C(C(=O)[C@H](OC(C)=O)[C@@H](C)[C@H]1[C@@H](OC(C)=O)C[C@@]2(C)[C@@H]3CC[C@H]4[C@H](C)/C(=N/OCc5ccccc5)C=C[C@@]45C[C@@]35CC[C@]12C)[C@@H](C)CO [Compound 36, 3-anti-O-benzyloxime-neoboutomellerone] | 12% | – | 1% | 6% | – | – | – | –
10 | CC(=O)O[C@H]1C[C@@]2(C)C3CCC4[C@H](C)C(=O)C=C[C@@]45C[C@@]35CC[C@]2(C)[C@H]1[C@H](C)[C@@H](OC(C)=O)C1=C(CN=[N+]=[N-])C(C)CO1 (stereo partly drawn) [Compound 47, Azido-methyl-dihydro-furan-neoboutomellerone Derivative] | 78% | – | 7% | 36% | – | – | – | –
11 | C=C(C(=O)[C@H](OC(C)=O)[C@@H](C)[C@H]1[C@@H](OC(C)=O)C[C@@]2(C)C3CCC4[C@H](C)C(=O)C=C[C@@]45C[C@@]35CC[C@]12C)[C@@H](C)COC(=O)CCl (stereo partly drawn) [Compound 49, 26-chloro-acetate-neoboutomellerone Derivative] | 44% | – | 19% | 15% | – | – | – | –
12 | C=C([C@@H](C)COC)C1(O)O[C@H]2C[C@@]3(C)C4CCC5[C@H](C)C(=O)C=C[C@@]56C[C@@]46CC[C@]3(C)[C@H]2[C@H](C)[C@H]1OC(C)=O (stereo partly drawn) [Compound 51, 16-deacetyl-26-methoxy-neoboutomellerone-hemiacetal] | 31% | – | 1% | 60% | – | – | – | –
13 | C=C(C(=O)[C@H](OC(C)=O)[C@@H](C)[C@H]1[C@@H](OC(C)=O)C[C@@]2(C)C3CCC4[C@H](C)C(=O)C=C[C@@]45C[C@@]35CC[C@]12C)[C@@H](C)COC(=O)CNC(=O)OC(C)(C)C (stereo partly drawn) [Compound 56, Neoboutomellerone 26-N-Boc-glycinate] | 34% | – | 21% | 7% | – | – | – | –
14 | C=C(C(=O)[C@H](O)[C@@H](C)[C@H]1[C@@H](OC(C)=O)C[C@@]2(C)C3CCC4[C@H](C)C(=O)C=C[C@@]45C[C@@]35CC[C@]12C)[C@@H](C)COC(=O)CNC(=O)OC(C)(C)C (stereo partly drawn) [Compound 58, 22-deacetyl-neoboutomellerone 26-N-Boc-glycinate] | 46% | – | 8% | 10% | – | – | – | –
15 | C=C(C(=O)[C@H](OC(=O)CNC(=O)OC(C)(C)C)[C@@H](C)[C@H]1[C@@H](OC(C)=O)C[C@@]2(C)C3CCC4[C@H](C)C(=O)C=C[C@@]45C[C@@]35CC[C@]12C)[C@@H](C)COC(C)=O (stereo partly drawn) [Compound 60, 22-deacetyl-neoboutomellerone 22-(N-Boc-glycinate)-26-acetyl] | 4% | 76% | 71% | 2% | – | – | – | –
